Assay results: US6043385A, “Vitamin D derivatives” (priority 1997, dated 2000)

How the values were obtained:
[1] = target: T1, human VDR (Homo sapiens, UniProt P11473); experiment: Vitamin D receptor activation (VDR), transcription activation assay in COS cells; type: cell-based; settings: for EC50: COS cells cotransfected with human VDR and VDRE3-luciferase reporter, read-out: VDR act. (ED50, nanomolar); for HTD/VDR: ratio HTDsc (mouse, μg/kg) / VDR ED50 (nanomolar); for TI shift (HTD/VDR of test compound divided by HTD/VDR of calcitriol): vs calcitriol
T1 construct: expressed in transfected cells; host or cells: COS cells, human VDR in pSG5
T1 sequence (P11473 1-427): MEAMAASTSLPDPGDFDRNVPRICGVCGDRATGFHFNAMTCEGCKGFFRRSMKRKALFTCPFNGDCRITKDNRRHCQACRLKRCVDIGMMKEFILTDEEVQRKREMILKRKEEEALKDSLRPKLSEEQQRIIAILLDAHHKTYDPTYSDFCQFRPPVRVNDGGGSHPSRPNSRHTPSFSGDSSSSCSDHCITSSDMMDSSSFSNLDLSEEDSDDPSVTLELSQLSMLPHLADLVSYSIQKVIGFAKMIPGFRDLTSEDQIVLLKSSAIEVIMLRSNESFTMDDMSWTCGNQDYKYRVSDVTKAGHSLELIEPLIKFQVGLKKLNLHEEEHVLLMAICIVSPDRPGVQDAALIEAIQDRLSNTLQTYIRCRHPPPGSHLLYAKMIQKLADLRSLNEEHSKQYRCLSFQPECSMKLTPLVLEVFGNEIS
Source text: 2. Vitamin D receptor activation (VDR)
In order to measure the activation of the vitamin D receptor (VDR) by vitamin D analogs in cells a transcription activation assay was used. COS cells were cotransfected with the human VDR (expressed in pSG5) and a reporter gene containing three response elements (VDRE3) from the rat osteocalcine gene, the thymidine kinase basal promoter, and the luciferase reporter gene, respectively.
TI shift: shift in "therapeutic index", defined as the ratio HTD/VDR of
the test compound divided by the ratio HTD/VDR of calcitriol. These

[2] = Calcium liability (tolerance test in mice); settings: mouse, in vivo, sc, daily s.c. for 4 consecutive days, dose without weight loss / with zero weight gain, read-out: HTD sc, mouse (highest tolerated subcutaneous dose)
Source text: 1. Calcium liability (tolerance test in mice):
This test gives a global picture of calcemic liability. Profound changes in calcium homeostasis strongly affect the weight development of the animals. This parameter was used as a primary test for tolerance. Mice (25-30 g body weight) received daily subcutaneous administrations of the vitamin D derivative for 4 consecutive days. Body weight was registered just before and at the end of a […] treatment period. The "highest tolerated dose" (HTDsc) in mice is the dose which results in zero weight gain during this treatment period.
HTDsc: highest tolerated subcutaneous dose (μg/kg) without weight loss

[3] = tested on: Epidermal proliferation in minipigs; experiment: The pig model: epidermal proliferation in minipigs; settings: for TI (ratio Calc./Eff.): calcemic dose / effective dose, 10080 min; for Calcemic dose / Effective dose: seven days; for Effective dose: dose that increases the normal LI at least 50%
[4] = The mouse model: epidermal thickening (acanthosis) in hairless mice; settings: mouse, in vivo, po
[5] = tested on: Epidermal thickening (acanthosis) in hairless mice; experiment: as above; settings: for ED50: Mus musculus, po, read-out: ED50: dose causing halfmaximal epidermal thickening; for ratio (TI) HTD/ED50 / TI shift (HTD/ED50 of test compound divided by HTD/ED50 of calcitriol): hairless mice, oral; for ratio (TI) HTD/ED50: HTDpo/ED50; for TI shift (HTD/ED50 of test compound divided by HTD/ED50 of calcitriol): vs calcitriol

Row | SMILES | EC50 [1] | HTD/VDR [1] | TI shift (HTD/VDR of test compound divided by HTD/VDR of calcitriol) [1] | MTD [2] | TI (ratio Calc./Eff.) [3] | Calcemic dose [3] | Effective dose [3] | MTD [4] | ED50 [5] | ratio (TI) HTD/ED50 [5] | TI shift (HTD/ED50 of test compound divided by HTD/ED50 of calcitriol) [5] | hyperproliferation (in words) ([3]; up to 9 times the dose that induces hypercalcemia)
1 | C=C1/C(=C\C=C2/CCC[C@]3(C)[C@@H]([C@H](C)CNC(=O)CC(C)(O)C(F)(F)F)CC[C@@H]23)C[C@@H](O)C[C@@H]1O (mixture of isomers) [D, 1:1 Mixture of [(5Z,7E)--(R)-- and (S)--N--[(1S,3R,20S)-1,3-dihydroxy-20-methyl-9,10-seco-pregna-5,7,10(19)-trien-21-yl]-4,4,4-trifluoro-3-hydroxy-3-methyl-butyramide] | 1.6 nM | 6.3 | 33 | 10 µg/kg | – | – | – | – | – | – | – | –
2 | C=C1/C(=C/C=C2\CCC[C@]3(C)[C@@H]([C@H](C)CNC(=O)CC(C)(O)C(F)(F)F)CC[C@@H]23)C[C@@H](O)C[C@@H]1O (mixture of isomers) [I, 1:1 Mixture of --[(5E,7E)--(R)-- and --(S)-4,4,4-trifluoro-3-hydroxy-N--[(1S,3R,20S)-1,3-dihydroxy-20-methyl-9,10-seco-pregna-5,7,10(19)-trien-21-yl]-3-methyl-butyramide] | 40 nM | 3.3 | 17 | 130 µg/kg | – | – | – | – | – | – | – | –
3 | C[C@H](CNC(=O)CC(C)(O)C(F)(F)F)[C@H]1CC[C@H]2/C(=C/C=C3C[C@@H](O)C[C@H](O)C3)CCC[C@]12C (mixture of isomers) [compound B, 1:1 Mixture of (E)--(R)-- and (S)--N--[(1R,3R,20S)-1,3-dihydroxy-20-methyl-19-nor-9,10-seco-pregna-5,7-dien-21-yl]-4,4,4-trifluoro-3-hydroxy-20-methyl-butyramide] | 1.7 nM | 26.5 | 139 | 45 µg/kg | 10 | 5 µg/kg | 0.5 µg/kg | 20 µg/kg | 80 µg/kg | 0.25 | 125 | –
4 | C[C@@H](CNC(=O)CC(C)(O)C(F)(F)F)[C@H]1CC[C@H]2/C(=C/C=C3C[C@@H](O)C[C@H](O)C3)CCC[C@]12C (mixture of isomers) [compound E, 1:1 Mixture of (E)--(R)-- and (S)--N--[(1R,3R,20R)-1,3-dihydroxy-20-methyl-19-nor-9,10-seco-pregna-5,7-dien-21-yl]-4,4,4-trifluoro-3-hydroxy-3-methyl-butyramide] | 0.35 nM | 2.9 | 15 | 1 µg/kg | – | – | – | – | – | – | – | –
5 | C[C@H](CNC(=O)CC(O)(C(F)(F)F)C(F)(F)F)[C@H]1CC[C@H]2/C(=C/C=C3C[C@@H](O)C[C@H](O)C3)CCC[C@]12C [A, (E)--(1R,3R,20S)--N-(1,3-Dihydroxy-20-methyl-19-nor-9,10-seco-pregna-5,7-dien-21-yl)-4,4,4-trifluoro-3-hydroxy-3-trifluoromethyl-butyramide] | 0.47 nM | 6.4 | 34 | 3 µg/kg | – | – | – | – | – | – | – | –
6 | C[C@H](CNC(=O)C(C)(C)O)[C@H]1CC[C@H]2/C(=C/C=C3C[C@@H](O)C[C@H](O)C3)CCC[C@]12C [C, (E)--(1R,3R,20S)--N-(1,3-Dihydroxy-20-methyl-19-nor-9,10-seco-pregna-5,7-dien-21-yl)-2-hydroxy-2-methyl-propionamide] | 6.4 nM | 62.5 | 329 | 400 µg/kg | – | – | – | – | – | – | – | –
7 | C=C1/C(=C\C=C2/CCC[C@]3(C)[C@@H]([C@H](C)CCCC(C)(C)O)CC[C@@H]23)C[C@@H](O)C[C@@H]1O [Calcitriol, reference compound] | – | – | – | – | – | 3 µg/kg | > 22.5 µg/kg | 1 µg/kg | 500 µg/kg | – | – | did not induce hyperproliferation even at highly toxic does (9 times the dose that induces hypercalcemia)
8 | C[C@H](CNC(=O)C[C@@](C)(O)C(F)(F)F)[C@H]1CCC[C@H]2/C(=C/C=C3C[C@@H](O)C[C@H](O)C3)CCC[C@]12C [F, (E)--(R)--N--[(1R,3R,20S)-1,3-Dihydroxy-17a,20a-dihomo-19-nor-9,10-seco-pregna-5,7-dien-21-yl]-4,4,4-trifluoro-3-hydroxy-3-methyl-butyramide] | 0.6 nM | 8.3 | 44 | 5 µg/kg | – | – | – | – | – | – | – | –
9 | C[C@H](CNC(=O)C[C@](C)(O)C(F)(F)F)[C@H]1CCC[C@H]2/C(=C/C=C3C[C@@H](O)C[C@H](O)C3)CCC[C@]12C [G, (E)--(S)--N--[(1R,3R,20S)-1,3-Dihydroxy-17a,20a-dihomo-19-nor-9,10-seco-pregna-5,7-dien-21-yl]-4,4,4-trifluoro-3-hydroxy-3-methyl-butyramide] | 0.18 nM | 25 | 132 | 4.5 µg/kg | – | – | – | – | – | – | – | –
10 | C[C@H](CNC(=O)CC(O)(C(F)(F)F)C(F)(F)F)[C@H]1CCC[C@H]2/C(=C/C=C3C[C@@H](O)C[C@H](O)C3)CCC[C@]12C [H, (E)--N--[(1R,3R,20S)-1,3-Dihydroxy-17a,20a-dihomo-19-nor-9,10-seco-pregna-5,7-dien-21-yl]-4,4,4-trifluoro-3-trifluoromethyl-3-hydroxy-butyramide] | 0.5 nM | 4.6 | 24 | 2.3 µg/kg | – | – | – | – | – | – | – | –
11 | C[C@H](CNC(=O)C[C@@](C)(O)C(F)(F)F)[C@H]1CC[C@H]2/C(=C/C=C3C[C@@H](O)C[C@H](O)C3)CCC[C@]12C [compound J, E--(R)--N--[(1R,3R,20S)-1,3-Dihydroxy-20-methyl-19-nor-9,10-seco-pregna-5,7-dien-21-yl]-4,4,4-trifluoro-3-hydroxy-3-methyl-butyramide] | 2.1 nM | 10.5 | 55 | 22 µg/kg | 29 | 5 µg/kg | 0.17 µg/kg | 8 µg/kg | 50 µg/kg | 0.16 | 80 | –
